In patent US7468391B2, “Methods for treating retinoid responsive disorders using selective inhibitors of CYP26A and CYP26B” (Allergan, Inc., priority 2003, dated 2008):

What was measured:
CYP26A (P450RAI-1) = target: T1, CYP26A (P450RAI-1) (Homo sapiens, UniProt O43174); assay: Cell-based inhibition of RA metabolism in CYP26A stably transfected HeLa cells; details: for IC50: Table 3, stably transfected HeLa cells, [3H]-RA, 3 hours at 37° C., read-out: CYP26A Intact cells IC50
T1 construct: expressed in transfected cells; host or cells: HeLa
T1 sequence (O43174 1-497): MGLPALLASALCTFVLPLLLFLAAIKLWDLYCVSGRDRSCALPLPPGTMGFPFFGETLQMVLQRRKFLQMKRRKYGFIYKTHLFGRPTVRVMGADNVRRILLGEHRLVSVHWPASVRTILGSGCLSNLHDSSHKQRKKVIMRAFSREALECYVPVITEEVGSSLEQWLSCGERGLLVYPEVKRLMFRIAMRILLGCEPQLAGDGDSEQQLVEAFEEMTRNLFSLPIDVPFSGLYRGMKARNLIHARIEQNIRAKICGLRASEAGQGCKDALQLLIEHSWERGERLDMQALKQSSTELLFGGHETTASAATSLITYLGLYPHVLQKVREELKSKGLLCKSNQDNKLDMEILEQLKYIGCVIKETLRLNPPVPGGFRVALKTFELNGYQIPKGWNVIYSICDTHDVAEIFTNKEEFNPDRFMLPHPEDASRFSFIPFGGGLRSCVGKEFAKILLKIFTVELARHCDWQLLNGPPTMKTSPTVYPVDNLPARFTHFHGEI
Method in brief: (§1)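 Stably transfected HeLa cells (5×10^5/well) in MEM with 10% FBS and 0.05 μCi [3H]-RA, compounds at 10, 1 or 0.1 μM final, 3 h at 37° C. Retinoids extracted by modified Bligh-Dyer (methylene chloride); aqueous radioactivity counted; ID50 for 50% inhibition of RA metabolism derived from log-transformed data.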

CYP26B (P450RAI-2) = target: T2, CYP26B (P450RAI-2) (Homo sapiens, UniProt Q9NR63); assay: Cell-based inhibition of RA metabolism in CYP26B stably transfected HeLa cells; details: for IC50: Table 3, stably transfected HeLa cells, [3H]-RA, 3 hours at 37° C., read-out: CYP26B Intact cells IC50
T2 construct: expressed in transfected cells; host or cells: HeLa
T2 sequence (Q9NR63 1-512): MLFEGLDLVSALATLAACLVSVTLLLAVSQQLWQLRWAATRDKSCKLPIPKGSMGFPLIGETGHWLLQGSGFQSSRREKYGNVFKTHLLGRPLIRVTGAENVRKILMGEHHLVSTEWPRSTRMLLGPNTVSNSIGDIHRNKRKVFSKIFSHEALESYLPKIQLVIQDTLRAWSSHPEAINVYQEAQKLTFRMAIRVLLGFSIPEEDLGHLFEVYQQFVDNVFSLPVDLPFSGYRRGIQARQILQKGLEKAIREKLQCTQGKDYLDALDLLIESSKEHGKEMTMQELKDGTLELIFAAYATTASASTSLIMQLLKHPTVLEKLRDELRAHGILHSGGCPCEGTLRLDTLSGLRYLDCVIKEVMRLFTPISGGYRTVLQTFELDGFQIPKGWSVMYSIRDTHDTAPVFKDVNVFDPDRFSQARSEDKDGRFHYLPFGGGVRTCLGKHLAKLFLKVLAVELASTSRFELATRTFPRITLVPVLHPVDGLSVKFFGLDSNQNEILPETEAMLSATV
Method in brief: as §1

RAR β = target: T3, RAR β (Homo sapiens, UniProt P10826); assay: RAR β Kd; assay type: binding; details: Table 3
T3 sequence (P10826 1-455): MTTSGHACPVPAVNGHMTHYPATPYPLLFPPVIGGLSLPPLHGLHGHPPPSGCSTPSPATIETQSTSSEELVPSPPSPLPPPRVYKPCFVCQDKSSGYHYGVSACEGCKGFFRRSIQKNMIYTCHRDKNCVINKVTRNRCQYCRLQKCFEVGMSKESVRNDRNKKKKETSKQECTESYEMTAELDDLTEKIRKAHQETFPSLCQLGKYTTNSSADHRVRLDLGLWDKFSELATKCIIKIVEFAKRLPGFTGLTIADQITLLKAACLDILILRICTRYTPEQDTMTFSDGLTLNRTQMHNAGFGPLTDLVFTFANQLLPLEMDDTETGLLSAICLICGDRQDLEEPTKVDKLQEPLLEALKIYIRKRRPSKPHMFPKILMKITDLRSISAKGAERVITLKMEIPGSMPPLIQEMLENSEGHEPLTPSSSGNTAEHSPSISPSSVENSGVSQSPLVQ

RAR γ = target: T4, RAR γ (Homo sapiens, UniProt P13631); assay: RAR γ Kd; assay type: binding; details: Table 3
T4 sequence (P13631 1-454): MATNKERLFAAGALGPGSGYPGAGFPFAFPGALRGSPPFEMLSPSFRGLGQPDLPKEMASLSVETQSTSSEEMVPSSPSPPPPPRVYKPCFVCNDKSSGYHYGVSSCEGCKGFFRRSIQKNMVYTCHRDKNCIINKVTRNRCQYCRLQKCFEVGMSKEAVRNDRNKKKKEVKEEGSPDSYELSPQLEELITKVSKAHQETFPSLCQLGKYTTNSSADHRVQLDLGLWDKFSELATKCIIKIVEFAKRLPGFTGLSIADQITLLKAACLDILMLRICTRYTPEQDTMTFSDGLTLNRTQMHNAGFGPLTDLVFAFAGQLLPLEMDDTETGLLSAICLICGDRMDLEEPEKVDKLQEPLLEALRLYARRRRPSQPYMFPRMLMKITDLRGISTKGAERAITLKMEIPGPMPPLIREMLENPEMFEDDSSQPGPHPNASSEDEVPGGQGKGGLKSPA

IC50 (CYP26A (P450RAI-1)) [µM]	IC50 (CYP26B (P450RAI-2)) [µM]	selectivity for CYP26B relative to CYP26A (CYP26B (P450RAI-2); ratio of ID50 values)	Kd (RAR β) [µM]	Kd (RAR γ) [µM]	selectivity for CYP26A relative to CYP26B (CYP26A (P450RAI-1); ratio of ID50 values)	Structure (SMILES)
> 10	0.6	at least 10 fold	> 10	> 10		CN(Cc1cccc(C#Cc2ccc(/C=C/C(=O)O)cc2)c1)C1CC1 [AGN 199713]
0.6	> 10		> 10	> 10	at least 10 fold	CN(C1CC1)C1CCC(C)(C)c2cc(C#Cc3ccc(C(C)(C)C(=O)O)cc3)ccc21 (stereo not shown) [AGN 198790]
